Measured values published in US6670132B2, “Determining non-nucleic acid molecule binding to target by competition with nucleic acid ligand” (Gilead Sciences, Inc., priority 1999, dated 2003).
[NH2-N] = 2'-amino-2'-deoxy sugar (2'-aminopyrimidine nucleotide) (N: the base)

Assays:
PDGF-BB [1] = molecular target: T1, PDGF-BB (Homo sapiens, UniProt P01127); experiment: Binding of PDGF aptamers to PDGF-BB
T1 construct: purchased R&D Systems (Minneapolis, Minn.)
Description: For the PDGF competition assay, a DNA PDGF aptamer sequence identified previously was used. The aptamer and methods used herein are described in detail in Example One. Aptamers obtained in this experiment bind preferentially to the B-chain of PDGF in a manner that inhibits receptor binding and PDGF-BB-induced DNA synthesis in vitro. Using photo-crosslinking experiments, it has been shown that a specific nucleotide in the aptamer interacts with phenylalanine-84 of the PDGF B-chain which is located near the region of PDGF know to be involved in receptor binding (Green, L. S. et al. (1996) Biochemistry 35, 14413-24). […] Thus, the aptamer used for competition binding experiments, 20tb, is a 27-mer that binds to PDGF-BB with a Kd of 0.5 nM.
A panel of oligoanions, mostly in the naphthalene sulfonic acid class, were screened for their ability to displace a ^32P-radiolabeled aptamer (20tb) from PDGF-BB. […] A nitrocellulose filter binding method was used to separate bound from unbound aptamer. Structures of competitors used in this competition assay are shown in FIGS. 1A-C along with the Kdc values calculated form the competition profiles (FIG. 2) according to equations (1)-(3) (Experimental Methods). For all competition experiments, the concentration of the ^32P end-labeled 20tb aptamer and PDGF-BB was 1.16 nM and 1.0 nM, respectively. […]

[2] = system: wheat germ agglutinin (WGA); experiment: Wheat germ agglutinin aptamer competition assay (displacement of 32P-labeled 11.20, nitrocellulose filter binding); design: species or system Triticum vulgare; settings: 10 nM 32P end-labeled 11.20, 10 nM WGA, room temperature
Method: Small molecule oligosaccharides were screened for their ability to compete with WGA aptamer 11.20 for binding to wheat germ agglutinin protein. The small molecule (or cold 11.20) competitors at varying concentrations were mixed with the 5′-32P end-labeled 11.20 ligand at room temperature. Then WGA was added to the mixture and allowed to equilibrate for 60 minutes at room temperature. The competition mixtures (90 μL volume) all had 32P end-labeled 11.20 at 10 nM, WGA at 10 nM and were in 25 mM Hepes, 137 mM NaCl, 2.7 mM KCl, 1 mM MgCl2, 1 mM CaCl2, 0.067% human serum albumin (HSA), at pH 7.4 (HBSMC). Aptamer bound to WGA was separated from free aptamer by filtration through pre-washed […] nitrocellulose membrane filters. Filters were washed with 5 mL HBSMC at room temperature. The filters were placed in tubes with scintillant and the radioactivity counted to quantitate the fraction of 32P end-labeled 11.20 bound at each competitor concentration.
Competition experiments were analyzed by the following equation to determine the concentration of free protein, [PF], as a function of the total concentration of competitor added, [CT]:
[PF]=[PT]/(1+KdR[RT]/(1+KdR[PF])+KdC[CT]/(1+KdC[PF])) (1)
where KdR is the binding constant of species R to the protein (assuming 1:1 stoichiometry) and KdC is the binding constant of species C, the competitor, to the protein (assuming 1:1 stoichiometry). Equation (1) was solved to self-consistency of [PF] to a precision of 1×10^−15. Using these values of [PF], the concentration of protein-ligand complex [PR] as a function of [CT] was determined by the following equation:
[PR]=KdR[RT][PF](1+KdC[PF]) (2)
Since the experimental data are expressed as %[PR], the calculated concentration of [PR] was normalized by [PR0], the [PR] in the absence of the competitor. [PR0] was obtained by solving equation (1) where [CT]=0. The maximum (M) and minimum (B) %[PR] were allowed to float during the analysis as shown in the following equation:
%[PR]=[PR]/[PR0](M−B)+B (3)
A non-linear least-squares fitting procedure was used as described by Bates and Watts (Bates, D. M. and Watts, D. G. 1988 in Non-Linear Regression Analysis and its Applications, D. M. Bates and D. G. Watts editors, John Wiley & Sons, NY, N.Y.). […]
A group of carbohydrates related to GlcNAc3 were tested for their ability to displace radiolabeled 11.20 from WGA. […] Structures of competitors used in this assay are shown in FIGS. 3A-C along with the Kdc values calculated from the competition profiles (FIGS. 4A-D) according to equations (1)-(3). […]

WGA = settings: cited from earlier work; for concentration required to completely inhibit WGA-mediated agglutination: tested previously (U.S. Pat. No. 5,780,228)
PDGF-BB [3] = molecular target: T1, PDGF-BB; experiment: PDGF aptamer competition assay (displacement of 32P-labeled 20tb, nitrocellulose filter binding); settings: competition with 1.16 nM 32P end-labeled 20tb, 1.0 nM PDGF-BB, 37° C.; calculated from competition profiles by equations (1)-(3); read-out: KdC
Method: Small molecule oligoanions were screened for their ability to compete with PDGF aptamer 20tb for binding to the PDGF-BB protein. The small molecule (or cold 20tb) competitors at varying concentrations were mixed with the 5′-^32P end-labeled 20tb ligand at room temperature. PDGF was then added to the mixture and allowed to equilibrate for 45 minutes at room temperature followed by 15 minutes at 37° C. The competition mixtures (90 μL volume) all had ^32P end-labeled 20tb at 1.16 nM, PDGF-BB at 1 nM and were in 25 mM Hepes, 137 mM NaCl, 2.7 mM KCl, 1 mM MgCl2, 1 mM CaCl2, 0.067% human serum albumin (HSA), at pH 7.4 (HBSMC). […] The filters were placed in tubes with scintillant and the radioactivity counted to quantitate the fraction of ^32P end-labeled 20tb bound at each competitor concentration.
Competition experiments were analyzed by the following equation to determine the concentration of free protein, [PF], as a function of the total concentration of competitor added, [CT]: […]
where KdR is the binding constant of species R to the protein (assuming 1:1 stoichiometry) and KdC is the binding constant of species C, the competitor, to the protein (assuming 1:1 stoichiometry). […] Using these values of [PF], the concentration of protein-ligand complex [PR] as a function of [CT] was determined by the following equation: […]

T1 sequence (P01127 82-190 limits assumed): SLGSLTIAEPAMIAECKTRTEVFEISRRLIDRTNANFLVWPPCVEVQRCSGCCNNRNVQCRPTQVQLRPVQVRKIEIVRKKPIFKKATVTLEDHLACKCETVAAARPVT

## 20ta: synthetic 33-mer DNA oligo, PDGF aptamer, 5′CGGGCGCGTTCTTCGTGGTTACTTTTAGTCCCG (DNA, backbone not given here)
PDGF-BB [1]; aptamer binding to PDGF
  Kd: 0.05 nM

## 20tb: synthetic 27-mer DNA oligo, truncated PDGF aptamer, 5′GGGCCGTTTCGGGTTACTTTTAGTCCC (DNA, backbone not given here)
PDGF-BB [1]; aptamer binding to PDGF-BB
  Kd: 0.5 nM

## CC(=O)N[C@H]1[C@H](O[C@H]2[C@H](O)[C@@H](NC(C)=O)C(O)O[C@@H]2CO)O[C@H](CO)[C@@H](O)[C@@H]1O (some centres unmarked) [(GlcNAc)2, N,N′-diacetylchitobiose]
[2]
  ability to displace radiolabeled 11.20 from WGA: best ligands

## CC(=O)N[C@H]1[C@H](O[C@H]2[C@H](O)[C@@H](NC(C)=O)C(O)O[C@@H]2CO)O[C@H](CO)[C@@H](O[C@@H]2O[C@H](CO)[C@@H](O)[C@H](O)[C@H]2NC(C)=O)[C@@H]1O (some centres unmarked) [(GlcNAc)3, N,N′,N″-triacetylchitotriose]
[2]
  ability to displace radiolabeled 11.20 from WGA: best ligands
WGA
  concentration required to completely inhibit WGA-mediated agglutination: 18.5 µM

## CC(=O)N[C@H]1[C@H](O[C@H]2[C@H](O)[C@@H](NC(C)=O)C(O)O[C@@H]2CO)O[C@H](CO)[C@@H](O[C@@H]2O[C@H](CO)[C@@H](O[C@@H]3O[C@H](CO)[C@@H](O)[C@H](O)[C@H]3NC(C)=O)[C@H](O)[C@H]2NC(C)=O)[C@@H]1O (some centres unmarked) [(GlcNAc)4, N,N′,N″,N′″-tetraacetyltetraose]
[2]
  ability to displace radiolabeled 11.20 from WGA: best ligands

## CC(=O)N[C@H]1C(O)O[C@H](CO)[C@@H](O)[C@@H]1O (stereo partly drawn) [GlcNAc, N-acetyl-D-glucosamine]
[2]
  ability to displace radiolabeled 11.20 from WGA: not a competitor
WGA
  concentration required to completely inhibit WGA-mediated agglutination: 800 µM

## O=S(=O)(O)c1ccc(N=Nc2c(S(=O)(=O)O)cc3cc(S(=O)(=O)O)cc(O)c3c2O)cc1 [SPADNS, 2-(4-sulfophenylazo)-1,8-dihydroxy-3,6-naphthalene disulfonic acid]
PDGF-BB [3]
  Kd: 19 µM

## O=S(=O)(O)c1ccc2c(S(=O)(=O)O)cc(S(=O)(=O)O)cc2c1 [naphthalene 1,3,6-trisulfonic acid]
PDGF-BB [3]
  Kd: 870 µM

B1: 11.20: 98-mer RNA transcript with 2′aminopyrimidine bases, WGA aptamer (nucleic acid)
chain: GGGAAAAGCGAAUCAUACACAAGAUUGGUCGUACUGGACAGAGCCGUGGUAGAGGGAUUGGGACAAAGUGUCAGCUCCGCCAGAGACCAACCGAGAA
modifications: [NH2-N] at CU, RNA at AG, all phosphodiester, methylation of C not given here
WGA; as described in U.S. Pat. No. 5,780,228
  inhibition of WGA-mediated agglutination of sheep erythrocytes: potently inhibited
